This note sets out measurements from US8198332B2, “Salicylamide derivatives as nicotinic alpha 7 modulators” (Roche Palo Alto LLC, priority 2008, dated 2012).

The structures appear in SMILES notation.

This assay deals with T1, human nicotinic alpha7 WT receptor (Homo sapiens, UniProt P36544).
T1 construct: expressed in transfected cells; host or cells: GH4C1 cells (rat pituitary-derived cell line), RPA clone #34.7
The experiment in a line: Nicotinic alpha 7 modulation assay (FLIPR, cytosolic Ca2+ elevation, FLUO-3). Format: cell-based. The procedure:
Cell Culture Growth Media: F10 medium (Invitrogen), 2.5% Fetal Bovine Serum (FBS, Summit Biotechnology); 15% heat inactivated donor Horse Serum (Invitrogen), 250 μg/ml Hygromycin B (Invitrogen); and 100 nM Methyllicaconite (MLA, Sigma) are added to each new culture by 50-fold dilution of stock solution prepared in H2O at […].
GH4C1 cells (rat pituitary-derived cell line) stably expressing human nicotinic alpha7 WT receptor (RPA clone #34.7) are cultivated in cell culture growth media (described above) at 37 C in a humidified atmosphere containing 4% CO2. […]
The alpha 7 nAChR assay is a cell-based functional readout designed to determine the effect of test compounds to either directly activate nicotinic receptor channels and/or to modulate activation by the native agonist acetylcholine (ACh, Sigma). […]
Assay of test compound effect on activation of the alpha7 nicotinic receptor channel is done by measurement of cytosolic [Ca^2+] elevation as reported by increased FLUO-3 fluorescence using a two addition experimental design and FLIPR™ (Molecular Devices). Following a 30 second baseline recording, test compounds are added online (dilution scheme below) and cell response is recorded for an additional 5 minutes. After a second addition of ACh (30 μM, FAC), plates are read for an additional 4 minutes. […]

T1 sequence (P36544 23-502): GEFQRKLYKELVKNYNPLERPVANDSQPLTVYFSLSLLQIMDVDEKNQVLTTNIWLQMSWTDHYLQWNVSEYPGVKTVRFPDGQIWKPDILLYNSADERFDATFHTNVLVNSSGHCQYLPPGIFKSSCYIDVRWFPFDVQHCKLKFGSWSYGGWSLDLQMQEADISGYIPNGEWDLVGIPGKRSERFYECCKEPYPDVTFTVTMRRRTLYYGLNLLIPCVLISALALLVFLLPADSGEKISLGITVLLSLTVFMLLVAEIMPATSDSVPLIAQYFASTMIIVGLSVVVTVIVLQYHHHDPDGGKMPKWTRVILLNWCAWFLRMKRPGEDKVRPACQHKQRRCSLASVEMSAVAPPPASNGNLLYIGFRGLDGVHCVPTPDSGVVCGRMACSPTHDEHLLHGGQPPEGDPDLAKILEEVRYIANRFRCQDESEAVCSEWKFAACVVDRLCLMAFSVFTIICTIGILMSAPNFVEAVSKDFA

The EC50 is the concentration giving half of the maximal effect. A lower EC50 goes with higher potency in that assay. Regarding `C#CC1(NC(=O)c2cc(-c3ccc(OC)cc3C)ccc2OCC2CC2)CCCCC1` [I-6, 4-Cyclopropylmethoxy-4′-methoxy-2′-methyl-biphenyl-3-carboxylic acid (1-ethynyl-cyclohexyl)-amide], the response was half-maximal at 220 nM (EC50). The same compound came in with a positive allosteric modulation (GH4C1 cells stably expressing human nicotinic alpha7 WT receptor, FLIPR, second addition of ACh 30 μM) of 255%.
